Experimental data from paper PMC10545747, “Development of cyclopeptide inhibitors of cGAS targeting protein-DNA interaction and phase separation” (Nature Communications, 2023).
Where “and” joins values, the source holds several entries; their conditions need not be identical. Equal entries are not always repeated. Square brackets hold non-standard residues; d marks the D form. Peptide text beside a SMILES is read from it. Hyp = O=C(O)[C@@H]1C[C@@H](O)CN1

Molecular target: T1, recombinant human cGAS enzyme (hcGAS-ΔN, residues 147–522) (Homo sapiens, UniProt Q8N884)
T1 construct: N-terminally truncated human cGAS (hcGAS-ΔN, residues 147–522); 6xHis-SUMO (N, cleaved yes); made in house; host or cells: Escherichia coli BL21 (DE3)
Assay: RNA-based fluorescent biosensor assay of cGAS activity (2',3'-cGAMP formation), in vitro screening
Format: biochemical
Settings: for Remaining activity (%), Fig. 1a source data / remaining activity at 20 µM: 20 μM, replicate values; for remaining activity at 20 µM: read-out: Remaining activity (%), Fig. 1a source data; for inhibition at 20 µM / Inhibition %: peptides screened at 20 μM, Supplementary Table 1 / Fig. S5b; for inhibition at 20 µM: read-out: Inhibition %
Description: To screen direct cGAS inhibitors targeting protein-DNA interface from our developed focused library of macrocyclic peptides, we applied an RNA-based fluorescent biosensor for 2’,3’-cGAMP to detect cGAS activity in vitro (Supplementary Fig. 1a)[49]. The formation of 2’,3’-cGAMP from ATP and GTP was catalyzed by recombinant human cGAS enzyme (hcGAS-ΔN, residues 147–522, Supplementary Fig. 1b) in the presence of ISD (interferon stimulatory DNA, a 45-bp dsDNA), which was readily quantified by the RNA-based fluorescent biosensor and was further confirmed by ion exchange chromatography (Supplementary Fig. 1c). […] Subsequently, a total of 90 macrocyclic peptides were screened at a concentration of 20 μM (Fig. 1a and Supplementary Fig. 1e), and 4 hits (XQ2, XQ8, XQ19, and XQ46) were obtained for further testing at a cut-off of 40% inhibition (Supplementary Table 1). To evaluate the inhibitory effect of the hits against cGAS in cells, we employed real-time quantitative PCR (qPCR) to examine mRNA levels of IFNΒ1 in THP1 cells. The reported cGAS inhibitor RU.521 was used as the positive control, and the non-active peptide XQ28 in the screening assay was used as the negative control. […] The inhibition of cGAS by these hits was further confirmed in the reporter cell line THP1-Lucia ISG (Invivogen) that expresses secreted luciferase induced by an IRF3-inducible ISG54 promoter (Fig. 1c). The discrepancy between the inhibitory effect of the hits in protein and cellular assays may be attributed to their different cellular permeability.
The high-throughput screening (HTS) experiments of cGAS activity are based on the method previously described. To initiate the enzyme reaction, ISD was added to the reaction solution (40 mM Tris-HCl, pH 7.5, 100 mM NaCl, 10 mM MgCl2) containing hcGAS-ΔN, ATP (Sangon Biotech, Cat# A600311) and GTP (Sangon Biotech, Cat# A620332) in a total volume of 20 ul with the final concentration of 0.5 μM, 1.5 μM, 1 mM, 1 mM, respectively, and incubated for 2 h at 37 °C. For HTS experiments, compounds were added to the same reaction conditions as described above with the final concentration of 20 μM. Z’ factors were calculated from three replicates in the 384-well plate.

T1 sequence (Q8N884 147-522, stated change not applied): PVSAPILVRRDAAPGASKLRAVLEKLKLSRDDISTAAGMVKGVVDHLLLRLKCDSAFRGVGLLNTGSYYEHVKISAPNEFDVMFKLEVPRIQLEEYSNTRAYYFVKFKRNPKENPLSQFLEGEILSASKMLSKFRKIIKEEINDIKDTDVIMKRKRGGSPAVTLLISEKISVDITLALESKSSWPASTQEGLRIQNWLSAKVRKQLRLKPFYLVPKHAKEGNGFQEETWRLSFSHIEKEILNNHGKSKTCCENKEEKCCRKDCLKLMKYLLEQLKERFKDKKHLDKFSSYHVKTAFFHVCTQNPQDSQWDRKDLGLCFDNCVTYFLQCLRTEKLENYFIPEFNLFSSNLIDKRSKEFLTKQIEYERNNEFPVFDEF

Remaining activity (%), Fig. 1a source data | remaining activity at 20 µM [%] | inhibition at 20 µM [%] | Inhibition % [%] | Compound
110.709% and 110.469% | 110 | 0 | – | CC(C)C[C@@H]1NC(=O)[C@H](CCCNC(=N)N)NC(=O)[C@H](C(C)C)NC(=O)[C@@H]2CCCN2C(=O)[C@@H](Cc2ccccc2)NC(=O)[C@H](C)NC(=O)[C@H](CCCNC(=N)N)NC(=O)[C@H](C)NC(=O)[C@@H]2CCCN2C(=O)[C@@H](Cc2ccccc2)NC1=O [XQ15, Cyclo (AfPVRLfPAR)] (cyclo(ARA[dF]PVRL[dF]P))
– | – | 0 | – | CC(C)C[C@@H]1NC(=O)[C@H](CCCNC(=N)N)NC(=O)[C@H](C(C)C)NC(=O)[C@H](C)NC(=O)[C@@H](Cc2ccccc2)NC(=O)[C@H](C)NC(=O)[C@H](CC(=O)O)NC(=O)[C@H](C(C)C)NC(=O)[C@@H]2CCCN2C(=O)[C@@H](Cc2ccccc2)NC1=O [XQ57, Cyclo (LfPVDAfAVR)] (cyclo(AVRL[dF]PVDA[dF]))
– | – | – | 0 | Cyclo (LfPTDAfPVR) [XQ84]
93.4229% and 93.3308% | 93.7 | 7 | – | CC(C)C[C@@H]1NC(=O)[C@H](CCCNC(=N)N)NC(=O)[C@H](C(C)C)NC(=O)[C@@H]2C[C@@H](O)CN2C(=O)[C@@H](Cc2ccccc2)NC(=O)[C@H](CC(C)C)NC(=O)[C@H](CCCNC(=N)N)NC(=O)[C@H](C(C)C)NC(=O)[C@@H]2C[C@@H](O)CN2C(=O)[C@@H](Cc2ccccc2)NC1=O [XQ12, Cyclo (Lf(Hyp)VRLf(Hyp)VR)] (cyclo([Hyp]VRL[dF][Hyp]VRL[dF]))
93.4684% and 95.0442% | 94.2 | 5 | – | CC(C)C[C@H]1NC(=O)[C@H](Cc2ccccc2)NC(=O)[C@H]2CCCN2C(=O)[C@@H]([C@H](C)O)NC(=O)[C@@H](CCCNC(=N)N)NC(=O)[C@@H](CC(C)C)NC(=O)[C@H](Cc2ccccc2)NC(=O)[C@H]2CCCN2C(=O)[C@@H]([C@H](C)O)NC(=O)[C@@H](CCCNC(=N)N)NC1=O [XQ24, Cyclo (tpFlrtpFlr)] (cyclo(F[dL][dR][dT][dP]F[dL][dR][dT][dP]))
– | – | 0 | – | CC(C)C[C@@H]1NC(=O)[C@H](CCCNC(=N)N)NC(=O)[C@H](C(C)C)NC(=O)[C@@H]2CCCN2C(=O)[C@@H](Cc2ccccc2)NC(=O)[C@H](C)NC(=O)[C@H](CC(C)C)NC(=O)[C@H](C(C)C)NC(=O)[C@@H]2CCCN2C(=O)[C@@H](Cc2ccccc2)NC1=O [XQ50, Cyclo (LfPVLAfPVR)] (cyclo(A[dF]PVRL[dF]PVL))
– | – | 0 | – | CC(C)C[C@@H]1NC(=O)[C@H](CCCNC(=N)N)NC(=O)[C@H](C(C)C)NC(=O)[C@H](CC(=O)O)NC(=O)[C@@H]2CCCN2C(=O)[C@@H](Cc2ccccc2)NC(=O)[C@H](CC(C)C)NC(=O)[C@H]([C@@H](C)O)NC(=O)[C@@H]2CCCN2C(=O)[C@@H](Cc2ccccc2)NC1=O [XQ66, Cyclo (LfPTLfPDVR)] (cyclo(DVRL[dF]PTL[dF]P))
– | – | 0 | – | CC(C)C[C@@H]1NC(=O)[C@H](C)NC(=O)[C@H](C(C)C)NC(=O)[C@@H]2CCCN2C(=O)[C@@H](Cc2ccccc2)NC(=O)[C@H](CC(C)C)NC(=O)[C@H](CCCNC(=N)N)NC(=O)[C@H](C(C)C)NC(=O)[C@@H]2CCCN2C(=O)[C@@H](CCCNC(=N)N)NC1=O [XQ56, Cyclo (LrPVRLfPVA)] (cyclo(AL[dR]PVRL[dF]PV))
– | – | 0 | – | CC(C)C[C@@H]1NC(=O)[C@H](CC(=O)O)NC(=O)[C@H](C(C)C)NC(=O)[C@@H]2CCCN2C(=O)[C@@H](C)NC(=O)[C@H](C)NC(=O)[C@H](CCCNC(=N)N)NC(=O)[C@H](C(C)C)NC(=O)[C@@H]2CCCN2C(=O)[C@@H](Cc2ccccc2)NC1=O [XQ78, Cyclo (AaPVDLfPVR)] (cyclo(A[dA]PVDL[dF]PVR))
– | – | 0 | – | CC(C)C[C@@H]1NC(=O)[C@H](C)NC(=O)[C@H](C(C)C)NC(=O)[C@@H]2CCCN2C(=O)[C@@H](CCCNC(=N)N)NC(=O)[C@H](CC(C)C)NC(=O)[C@H](CCCNC(=N)N)NC(=O)[C@H](C(C)C)NC(=O)[C@@H]2CCCN2C(=O)[C@@H](Cc2ccccc2)NC1=O [XQ55, Cyclo (LrPVALfPVR)] (cyclo(AL[dF]PVRL[dR]PV))
– | – | 0 | – | CC(C)C[C@@H]1NC(=O)[C@H](CC(=O)O)NC(=O)[C@H]([C@@H](C)O)NC(=O)[C@@H]2CCCN2C(=O)[C@@H](Cc2ccccc2)NC(=O)[C@H](CC(C)C)NC(=O)[C@H](CCCNC(=N)N)NC(=O)[C@H]([C@@H](C)O)NC(=O)[C@H](C)NC(=O)[C@@H](Cc2ccccc2)NC1=O [XQ59, Cyclo (LfPTDLfATR)] (cyclo(ATRL[dF]PTDL[dF]))
69.874% and 69.5698% | 69.3 | 30 | – | CC(C)C[C@@H]1NC(=O)[C@H](CCCNC(=N)N)NC(=O)[C@H]([C@@H](C)O)NC(=O)[C@@H]2CCCN2C(=O)[C@@H](Cc2ccccc2)NC(=O)[C@H](CC(C)C)NC(=O)[C@H](CCCNC(=N)N)NC(=O)[C@H]([C@@H](C)O)NC(=O)[C@@H]2CCCN2C(=O)CNC1=O [XQ32, Cyclo (LgPTRLfPTR)] (cyclo(GPTRL[dF]PTRL))
96.1851% and 95.3459% | 96 | 4 | – | CC(C)C[C@@H]1NC(=O)[C@H](CCCNC(=N)N)NC(=O)[C@H](C(C)C)NC(=O)[C@@H]2CCCN2C(=O)[C@@H](C)NC(=O)[C@H](C)NC(=O)[C@H](CCCNC(=N)N)NC(=O)[C@H](C(C)C)NC(=O)[C@@H]2CCCN2C(=O)[C@@H](Cc2ccccc2)NC1=O [XQ14, Cyclo (AaPVRLfPVR)] (cyclo(A[dA]PVRL[dF]PVR))
– | – | – | 0 | Cyclo (LfRVDAfPVR) [XQ82]
92.7452% and 92.4625% | 93.4 | 7 | – | CC(C)C[C@@H]1NC(=O)[C@H](CCCNC(=N)N)NC(=O)[C@H](C)NC(=O)[C@@H]2CCCN2C(=O)[C@@H](Cc2ccccc2)NC(=O)[C@H](C)NC(=O)[C@H](CCCNC(=N)N)NC(=O)[C@H](C(C)C)NC(=O)[C@@H]2CCCN2C(=O)[C@@H](Cc2ccccc2)NC1=O [XQ13, Cyclo (AfPARLfPVR)] (cyclo(ARL[dF]PVRA[dF]P))
– | – | 0 | – | CC(C)C[C@@H]1NC(=O)[C@H](CCCNC(=N)N)NC(=O)[C@H](C(C)C)NC(=O)[C@@H]2CCCN2C(=O)[C@@H](Cc2ccccc2)NC(=O)[C@H](C)NC(=O)[C@H](CCCNC(=N)N)NC(=O)[C@H](CC(C)C)NC(=O)[C@@H]2CCCN2C(=O)[C@@H](Cc2ccccc2)NC1=O [XQ51, Cyclo (LfPLRAfPVR)] (cyclo(A[dF]PVRL[dF]PLR))
– | – | 10 | – | CC(C)C[C@@H]1NC(=O)[C@H](C)NC(=O)[C@H](C(C)C)NC(=O)[C@H](CCCNC(=N)N)NC(=O)[C@@H](Cc2ccccc2)NC(=O)[C@H](CC(C)C)NC(=O)[C@H](CC(=O)O)NC(=O)[C@H](C(C)C)NC(=O)[C@@H]2CCCN2C(=O)[C@@H](Cc2ccccc2)NC1=O [XQ77, Cyclo (LfPVDLfRVA)] (cyclo(AL[dF]PVDL[dF]RV))
67.2186% and 66.8539% | 67.1 | 33 | – | CC(C)C[C@@H]1NC(=O)[C@H](CCCNC(=N)N)NC(=O)[C@H](C(C)C)NC(=O)[C@@H]2CCCN2C(=O)[C@@H](Cc2ccccc2)NC(=O)[C@H](CC(C)C)NC(=O)[C@H](CCCNC(=N)N)NC(=O)[C@H](C)NC(=O)[C@@H]2CCCN2C(=O)[C@@H](Cc2ccccc2)NC1=O [XQ3, Cyclo (LfPARLfPVR)] (cyclo(ARL[dF]PVRL[dF]P))
116.041% and 118.595% | 116 | 0 | – | N=C(N)NCCC[C@@H]1NC(=O)[C@@H]2CCCN2C(=O)[C@@H](Cc2ccccc2)NC(=O)[C@H](CCCNC(=N)N)NC(=O)[C@@H]2CCCN2C(=O)[C@@H](Cc2ccccc2)NC1=O [XQ26, Cyclo (PRfPRf)] (cyclo(PR[dF]PR[dF]))
– | – | – | 0 | Cyclo (LfRADAfPVR) [XQ83]
68.1038% and 66.5986% | 66.6 | 32 | – | CC(C)C[C@@H]1NC(=O)[C@H](CCCNC(=N)N)NC(=O)[C@H](C(C)C)NC(=O)[C@@H]2C[C@@H](O)CN2C(=O)[C@@H](Cc2ccccc2)NC(=O)[C@H](CC(C)C)NC(=O)[C@H](CCCNC(=N)N)NC(=O)[C@H](C(C)C)NC(=O)[C@@H]2CCCN2C(=O)[C@@H](Cc2ccccc2)NC1=O [XQ6, Cyclo (LfPVRLf(Hyp)VR)] (cyclo([Hyp]VRL[dF]PVRL[dF]))
– | – | – | 7 | Cyclo (Lf(Hyp)TDAfPVR) [XQ88]
